Reference: patent US9598416B2, “Substituted benzothienyl-pyrrolotriazines and uses thereof in the treatment cancer” (Bayer Intellectual Property GmbH, priority 2011, dated 2017)
Structures can show the parent of a compound that is named as a salt. Where two headings read alike, the source gives them in different places.

Tests used:
human FGFR-3 = human FGFR-3 (Homo sapiens (Human), UniProt P22607); assay: FGFR-3 kinase assay (TR-FRET); format: biochemical; settings: 10 μM ATP; compounds of the invention
human FGFR-3, sequence (P22607 397-806): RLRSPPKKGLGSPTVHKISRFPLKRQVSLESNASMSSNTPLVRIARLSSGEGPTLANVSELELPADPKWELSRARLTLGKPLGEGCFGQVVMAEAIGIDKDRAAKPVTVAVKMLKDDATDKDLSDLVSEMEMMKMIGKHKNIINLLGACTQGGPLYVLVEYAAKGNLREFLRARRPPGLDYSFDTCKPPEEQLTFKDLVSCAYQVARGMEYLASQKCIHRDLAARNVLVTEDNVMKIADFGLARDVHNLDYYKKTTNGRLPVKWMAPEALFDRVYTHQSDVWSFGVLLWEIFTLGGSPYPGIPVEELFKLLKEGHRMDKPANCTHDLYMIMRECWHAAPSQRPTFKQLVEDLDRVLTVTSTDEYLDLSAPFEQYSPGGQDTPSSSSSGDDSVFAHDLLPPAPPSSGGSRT

human mTOR = human mTOR (Homo sapiens (Human), UniProt P42345); assay: mTOR kinase assay (TR-FRET, for comparative purposes); format: biochemical; settings: for inhibition at 1 µM: read-out: mTOR % inhibition @ 1 μM
human mTOR, sequence (P42345 1360-2549): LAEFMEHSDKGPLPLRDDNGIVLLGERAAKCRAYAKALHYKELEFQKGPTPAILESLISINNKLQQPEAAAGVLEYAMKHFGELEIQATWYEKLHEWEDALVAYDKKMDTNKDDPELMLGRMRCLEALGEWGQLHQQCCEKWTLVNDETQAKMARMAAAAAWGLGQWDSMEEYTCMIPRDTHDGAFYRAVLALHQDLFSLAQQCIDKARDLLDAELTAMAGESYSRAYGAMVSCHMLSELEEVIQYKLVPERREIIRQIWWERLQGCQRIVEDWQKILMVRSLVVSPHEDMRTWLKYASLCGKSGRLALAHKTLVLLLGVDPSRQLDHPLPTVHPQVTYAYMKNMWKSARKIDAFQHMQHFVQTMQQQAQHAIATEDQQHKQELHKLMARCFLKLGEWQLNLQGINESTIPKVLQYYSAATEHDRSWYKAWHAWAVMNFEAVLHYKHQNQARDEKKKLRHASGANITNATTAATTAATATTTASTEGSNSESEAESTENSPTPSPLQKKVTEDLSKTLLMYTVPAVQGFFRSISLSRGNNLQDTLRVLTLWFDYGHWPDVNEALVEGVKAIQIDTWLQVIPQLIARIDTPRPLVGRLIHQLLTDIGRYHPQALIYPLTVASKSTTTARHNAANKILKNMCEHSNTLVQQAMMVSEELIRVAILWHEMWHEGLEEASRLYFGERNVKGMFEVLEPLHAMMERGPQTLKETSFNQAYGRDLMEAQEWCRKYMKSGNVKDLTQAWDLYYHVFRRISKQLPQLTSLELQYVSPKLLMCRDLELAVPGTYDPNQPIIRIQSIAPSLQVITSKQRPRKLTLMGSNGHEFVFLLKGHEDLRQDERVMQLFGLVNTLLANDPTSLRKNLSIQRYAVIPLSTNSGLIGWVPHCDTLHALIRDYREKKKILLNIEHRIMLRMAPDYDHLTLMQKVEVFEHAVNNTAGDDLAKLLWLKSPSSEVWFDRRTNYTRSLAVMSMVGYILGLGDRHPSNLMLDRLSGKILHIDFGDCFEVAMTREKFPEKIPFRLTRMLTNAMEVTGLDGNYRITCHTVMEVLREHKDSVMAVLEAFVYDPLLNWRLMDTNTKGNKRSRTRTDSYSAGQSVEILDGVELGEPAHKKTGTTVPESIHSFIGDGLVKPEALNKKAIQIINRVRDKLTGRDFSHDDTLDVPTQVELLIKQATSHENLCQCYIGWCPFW
From the text: mTOR inhibitory activity of the compounds of the present invention was quantified employing the TR-FRET based mTOR assay as described in the following paragraphs: Recombinant fusion tagged mTOR protein [glutathione-S-transferase (GST) fused to human mTOR amino acids from 1360 to 2549], expressed in insect cells and purified by glutathione-sepharose affinity chromatography, was purchased from Invitrogen (Cat.-No. 4753) and used as enzyme. As substrate for the kinase reaction, a recombinant fusion protein of GFP and 4E-BP1 (purchased from Invitrogen, Cat.-No. PV4759) was used. Test compounds were dissolved in DMSO to generate 10 mM stock solutions. […] The resulting mixture was incubated for 1 h at 22° C. to allow formation of the complex between the phosphorylated substrate and the Tb-chelate labelled antibody. Subsequently, the amount of phosphorylated substrate was evaluated by measurement of the resonance energy transfer from the Tb-chelate to the GFP. For this, the fluorescence emissions at 495 nm and 520 nm after excitation at 340 nm was measured in an Envision 2104 multilabel reader (Perkin-Elmer). The ratio of the emissions at 520 nm and at 495 nm was taken as the measure for the amount of phosphorylated substrate.

[1] = 1 μM test compound, mean inhibition values

SMILES	IC50 (human FGFR-3) [nM]	further results
COCCN(C)Cc1cn2ncnc(N)c2c1-c1cc2cc(C)cc(OC)c2s1 [Example 70]	7.4	
CCOC(=O)COCc1cn2ncnc(N)c2c1-c1cc2cc(C)cc(OC)c2s1 [Example 4, Ethyl {[4-amino-5-(7-methoxy-5-methyl-1-benzothiophen-2-yl)pyrrolo[2,1-f][1,2,4]triazin-6-yl]-methoxy}acetate]	49.9	inhibition at 1 µM (human mTOR; [1]): 8.4%
COc1cc(C)cc2cc(-c3c(CNC4CC4)cn4ncnc(N)c34)sc12 [Example 48]	3.6	
COc1cc(C)cc2cc(-c3c(CNCCNC(C)=O)cn4ncnc(N)c34)sc12 [Example 24, N-[2-({[4-Amino-5-(7-methoxy-5-methyl-1-benzothiophen-2-yl)pyrrolo[2,1-f][1,2,4]triazin-6-yl]-methyl}amino)ethyl]acetamide trifluoroacetate]	8.7	inhibition at 1 µM (human mTOR): 0.3%
COc1cc(C)cc2cc(-c3c(COCC#N)cn4ncnc(N)c34)sc12 [Example 40]	9.1	
CCOC(=O)CNCc1cn2ncnc(N)c2c1-c1cc2cc(C)cc(OC)c2s1 [Example 15, Ethyl N-{[4-amino-5-(7-methoxy-5-methyl-1-benzothiophen-2-yl)pyrrolo[2,1-f][1,2,4]triazin-6-yl]-methyl}glycinate dihydrochloride]	87.1	inhibition at 1 µM (human mTOR): 4%
COc1cccc2cc(-c3c(CN4CCNC(=O)C4)cn4ncnc(N)c34)sc12 [Example 30, 4-{[4-Amino-5-(7-methoxy-1-benzothiophen-2-yl)pyrrolo[2,1-f][1,2,4]triazin-6-yl]methyl}piperazin-2-one]	3.1	inhibition at 1 µM (human mTOR; [1]): 1.6%
COc1cc(C)cc2cc(-c3c(CN4CCCC(N(C)C)C4)cn4ncnc(N)c34)sc12 (stereo not drawn) [Example 67]	0.6	
COc1cc(C)cc2cc(-c3c(CN4CCCC(OC)C4)cn4ncnc(N)c34)sc12 (stereo not drawn) [Example 62]	2.6	
COc1cc(C)cc2cc(-c3c(CN4CCS(=O)(=O)CC4)cn4ncnc(N)c34)sc12 [Example 77]	15.3	
COc1cc(C)cc2cc(-c3c(CN4CCN(C(=O)OC(C)(C)C)CC4)cn4ncnc(N)c34)sc12 [Example 22, tert-Butyl 4-{[4-amino-5-(7-methoxy-5-methyl-1-benzothiophen-2-yl)pyrrolo[2,1-f][1,2,4]triazin-6-yl]methyl}piperazine-1-carboxylate trifluoroacetate]	10.8	inhibition at 1 µM (human mTOR): 1.6%
COc1cc(C)cc2cc(-c3c(CN4CCCC4)cn4ncnc(N)c34)sc12 [Example 47]	1	
COc1cc(C)cc2cc(-c3c(CN4CCC(O)C4)cn4ncnc(N)c34)sc12 (racemic) [Example 18, rac-1-{[4-Amino-5-(7-methoxy-5-methyl-1-benzothiophen-2-yl)pyrrolo[2,1-f][1,2,4]triazin-6-yl]-methyl}pyrrolidin-3-ol dihydrochloride]	1.3	mTOR % inhibition @ 1 μM (human mTOR; [1]): no inhib. effect detect.
CCOCc1cn2ncnc(N)c2c1-c1cc2cc(C)cc(OC)c2s1 [Example 28, 6-(Ethoxymethyl)-5-(7-methoxy-5-methyl-1-benzothiophen-2-yl)pyrrolo[2,1-f][1,2,4]triazin-4-amine]	14.2	inhibition at 1 µM (human mTOR; [1]): 35.5%
COc1cc(C)cc2cc(-c3c(CN4CCCC4C(N)=O)cn4ncnc(N)c34)sc12 (racemic) [Example 19, rac-1-{[4-Amino-5-(7-methoxy-5-methyl-1-benzothiophen-2-yl)pyrrolo[2,1-f][1,2,4]triazin-6-yl]-methyl}prolinamide dihydrochloride]	11.2	inhibition at 1 µM (human mTOR): 1.8%
COc1cc(C)cc2cc(-c3c(COCCO)cn4ncnc(N)c34)sc12 [Example 7, 2-{[4-Amino-5-(7-methoxy-5-methyl-1-benzothiophen-2-yl)pyrrolo[2,1-f][1,2,4]triazin-6-yl]-methoxy}ethanol hydrochloride]	5.8	inhibition at 1 µM (human mTOR): 4.7%
COc1cc(C)cc2cc(-c3c(CN4CCC(C(N)=O)CC4)cn4ncnc(N)c34)sc12 [Example 64]	1.1	
COc1cc(C)cc2cc(-c3c(CO)cn4ncnc(N)c34)sc12 [Example 32, [4-Amino-5-(7-methoxy-5-methyl-1-benzothiophen-2-yl)pyrrolo[2,1-f][1,2,4]triazin-6-yl]methanol]		mTOR % inhibition @ 1 μM (human mTOR; [1]): no inhib. effect detect.
COc1cc(C)cc2cc(-c3c(CN4CCN(C5CC5)CC4)cn4ncnc(N)c34)sc12 [Example 58]	6.2	
COc1cc(C)cc2cc(-c3c(CN4CCOC(C)C4)cn4ncnc(N)c34)sc12 (stereo not drawn) [Example 76]	4.9	
COc1cc(C)cc2cc(-c3c(CNC(C)=O)cn4ncnc(N)c34)sc12 [Example 9, N-{[4-Amino-5-(7-methoxy-5-methyl-1-benzothiophen-2-yl)pyrrolo[2,1-f][1,2,4]triazin-6-yl]-methyl}acetamide]	0.2	mTOR % inhibition @ 1 μM (human mTOR; [1]): no inhib. effect detect.
COc1cc(C)cc2cc(-c3c(COC[C@H](C)O)cn4ncnc(N)c34)sc12 [Example 2, (2S)-1-{[4-Amino-5-(7-methoxy-5-methyl-1-benzothiophen-2-yl)pyrrolo[2,1-f][1,2,4]triazin-6-yl]-methoxy}propan-2-ol]	2.2	inhibition at 1 µM (human mTOR; [1]): 6.1%
COc1cc(C)cc2cc(-c3c(CN4CCCN(C)CC4)cn4ncnc(N)c34)sc12 [Example 68]	0.8	
COc1cc(C)cc2cc(-c3c(CN4CCCOCC4)cn4ncnc(N)c34)sc12 [Example 54]	2.3	
COc1cc(C)cc2cc(-c3c(CN4CC[C@@H](N(C)C)C4)cn4ncnc(N)c34)sc12 [Example 65]	0.6	

SMILES	IC50 (human FGFR-3) [nM]	further results
COc1cc(C)cc2cc(-c3c(CN4CCOC(C)(C)C4)cn4ncnc(N)c34)sc12 [Example 52]	3.8	
COc1cc(C)cc2cc(-c3c(COCCCC#N)cn4ncnc(N)c34)sc12 [Example 41]	12.7	
CCC(C)NCc1cn2ncnc(N)c2c1-c1cc2cc(C)cc(OC)c2s1 (stereo not drawn) [Example 74]	5	
COc1cc(C)cc2cc(-c3c(CN4CCNC(=O)C4C)cn4ncnc(N)c34)sc12 (stereo not drawn) [Example 55]	1.4	
COc1cc(C)cc2cc(-c3c(CN4CNC(=O)C4)cn4ncnc(N)c34)sc12 [Example 56]	3.1	
COc1cc(OC)c2sc(-c3c(CN4CCNC(=O)C4)cn4ncnc(N)c34)cc2c1 [Example 33, 4-{[4-Amino-5-(5,7-dimethoxy-1-benzothiophen-2-yl)pyrrolo[2,1-f][1,2,4]triazin-6-yl]methyl}-piperazin-2-one]	1.8	
COc1cc(C)cc2cc(-c3c(CN4CCCC(C(N)=O)C4)cn4ncnc(N)c34)sc12 (stereo not drawn) [Example 69]	4.4	
COc1cc(C)cc2cc(-c3c(CNC4CCS(=O)(=O)C4)cn4ncnc(N)c34)sc12 (stereo not drawn) [Example 72]	5.5	
COc1cc(C)cc2cc(-c3c(CN(C)CC(F)(F)F)cn4ncnc(N)c34)sc12 [Example 61]	14.6	
COc1cc(C)cc2cc(-c3c(COCCN4CCCC4)cn4ncnc(N)c34)sc12 [Example 43]	10.7	
COCCN(Cc1cn2ncnc(N)c2c1-c1cc2cc(C)cc(OC)c2s1)C(C)C [Example 49]	14.2	
COc1cc(C)cc2cc(-c3c(CN4CC[C@H](N(C)C)C4)cn4ncnc(N)c34)sc12 [Example 66]	0.5	
COc1cc(C)cc2cc(-c3c(CNC4CCOC4)cn4ncnc(N)c34)sc12 (stereo not drawn) [Example 73]	2.3	
COc1cc(C)cc2cc(-c3c(CN4CCN(C)CC4)cn4ncnc(N)c34)sc12 [Example 50]	0.1	
COc1cc(C)cc2cc(-c3c(COCCN4CCOCC4)cn4ncnc(N)c34)sc12 [Example 42]	30	
COc1cc(C)cc2cc(-c3c(CN4CCCCC4)cn4ncnc(N)c34)sc12 [Example 51]	0.7	
COc1cc(C)cc2cc(-c3c(CN4CCC(F)(F)C4)cn4ncnc(N)c34)sc12 [Example 63]	3	
COc1cc(C)cc2cc(-c3c(COCCCN(C)C)cn4ncnc(N)c34)sc12 [Example 45]	24.8	
COc1cc(C)cc2cc(-c3c(COCCN4CCCCC4)cn4ncnc(N)c34)sc12 [Example 44]	9.3	
COc1cc(C)cc2cc(-c3c(CN4CCC(OC)CC4)cn4ncnc(N)c34)sc12 [Example 60]	12.5	
COc1cc(C)cc2cc(-c3c(CN4CC(OC)C4)cn4ncnc(N)c34)sc12 [Example 53]	15.1	
COc1cc(C)cc2cc(-c3c(CN(C)C4CCS(=O)(=O)C4)cn4ncnc(N)c34)sc12 (stereo not drawn) [Example 57]	3	
COc1cc(C)cc2cc(-c3c(CNCC(C)O)cn4ncnc(N)c34)sc12 (racemic) [Example 26, rac-1-({[4-Amino-5-(7-methoxy-5-methyl-1-benzothiophen-2-yl)pyrrolo[2,1-f][1,2,4]triazin-6-yl]-methyl}amino)propan-2-ol dihydrochloride]		mTOR % inhibition @ 1 μM (human mTOR; [1]): no inhib. effect detect.
COc1cc(C)cc2cc(-c3c(CN(C)CC(C)OC)cn4ncnc(N)c34)sc12 (stereo not drawn) [Example 59]	4	
